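Interpolation was linear, between the two tested concentrations surrounding the appropriate level; five concentrations were tested over 48 hours in 96-well plates. GI50: concentration for 50% inhibition of growth.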 Activity calls are given as the source filed them. Cut-off read from the data, not from the text of the source: active = GI50 up to about 1.1 µM and inactive = higher.
Columns and labels:
Assay in all cases: DTP human tumour cell line panel, 48 h
A549 = test system: A549
CCRF-CEM = test system: CCRF-CEM
DLD-1 = test system: DLD-1
HCT-15 = test system: HCT-15
SK-MEL-5 = test system: SK-MEL-5
HCT-116 = test system: HCT-116
SF-539 = test system: SF-539
HT-29 = test system: HT-29
SK-MEL-2 = test system: SK-MEL-2
UACC-257 = test system: UACC-257
RPMI-8226 = test system: RPMI-8226
SK-OV-3 = test system: SK-OV-3
A498 = test system: A498
NCI-H460 = test system: NCI-H460
EKVX = test system: EKVX
DU-145 = test system: DU-145
NCI/ADR-RES = test system: NCI/ADR-RES
Hs-578T = test system: Hs-578T
MDA-MB-435 = test system: MDA-MB-435
OVCAR-3 = test system: OVCAR-3

COc1ccc(/C=C2\SC(c3ccc(OC)cc3)N(NC(=O)Cc3ccccc3)C2=O)cc1 (stereo not drawn)
GI50 (A549): > 100 µM (inactive)
GI50 (CCRF-CEM): > 100 µM (inactive)
GI50 (DLD-1): > 100 µM (inactive)
GI50 (HCT-15): > 100 µM
GI50 (SK-MEL-5): > 100 µM (inactive)
GI50 (HCT-116): > 100 µM (inactive)
GI50 (SF-539): > 100 µM (inactive)
GI50 (HT-29): > 100 µM (inactive)
GI50 (SK-MEL-2): > 100 µM (inactive)
GI50 (UACC-257): > 100 µM (inactive)
GI50 (RPMI-8226): 76.4 µM (inactive)
GI50 (SK-OV-3): > 100 µM (inactive)
GI50 (A498): > 100 µM (inactive)
GI50 (NCI-H460): > 100 µM (inactive)

O=[N+]([O-])c1cccc(C2=NN(c3ccccc3)C[N+](c3ccc(Br)cc3)=N2)c1
GI50 (A549): > 100 µM (inactive)
GI50 (DLD-1): 96.8 µM (inactive)
GI50 (HCT-15): > 100 µM
GI50 (SK-MEL-5): > 100 µM (inactive)
GI50 (HCT-116): 97.1 µM (inactive)
GI50 (EKVX): > 100 µM (inactive)
GI50 (SF-539): > 100 µM (inactive)
GI50 (HT-29): 47.4 µM (inactive)
GI50 (SK-MEL-2): 87.3 µM (inactive)
GI50 (UACC-257): > 100 µM (inactive)
GI50 (RPMI-8226): 82 µM (inactive)
GI50 (SK-OV-3): > 100 µM (inactive)
GI50 (A498): > 100 µM (inactive)
GI50 (NCI-H460): > 100 µM (inactive)

CCOC(=O)/C(C)=C\[C@@]1(C)O[C@@H](C)[C@@](C)(OC(C)=O)[C@@H]1OC(C)=O
GI50 (A549): 45.4 µM (inactive)
GI50 (CCRF-CEM): 33.5 µM (inactive)
GI50 (HCT-15): 17.1 µM
GI50 (SK-MEL-5): 33.8 µM (inactive)
GI50 (HCT-116): 40.9 µM (inactive)
GI50 (EKVX): 36.1 µM (inactive)
GI50 (SF-539): > 100 µM (inactive)
GI50 (HT-29): 40.6 µM (inactive)
GI50 (SK-MEL-2): 61.8 µM (inactive)
GI50 (UACC-257): 28.2 µM (inactive)
GI50 (RPMI-8226): 51.8 µM (inactive)
GI50 (DU-145): 37.1 µM (inactive)
GI50 (NCI/ADR-RES): 30.2 µM (inactive)
GI50 (Hs-578T): 27 µM (inactive)
GI50 (SK-OV-3): 75.7 µM (inactive)
GI50 (MDA-MB-435): 41.7 µM (inactive)
GI50 (A498): 48 µM (inactive)
GI50 (OVCAR-3): 33.4 µM (inactive)
GI50 (NCI-H460): 43 µM (inactive)

C[C@@]12CCC(=O)c3coc(c31)C(=O)c1cc3c(cc12)C(=O)C=CC3=O [HELENAQUINONE]
GI50 (A549): 45.2 µM (inactive)
GI50 (DLD-1): 15.4 µM (inactive)
GI50 (HCT-15): 17.3 µM
GI50 (SK-MEL-5): 15.1 µM (inactive)
GI50 (HCT-116): 15.4 µM (inactive)
GI50 (EKVX): 23.6 µM (inactive)
GI50 (SF-539): 17.6 µM (inactive)
GI50 (HT-29): 19.7 µM (inactive)
GI50 (SK-MEL-2): 23.9 µM (inactive)
GI50 (UACC-257): 11.6 µM (inactive)
GI50 (RPMI-8226): 64.6 µM (inactive)
GI50 (SK-OV-3): > 100 µM (inactive)
GI50 (A498): > 100 µM (inactive)
GI50 (OVCAR-3): 18.7 µM (inactive)
GI50 (NCI-H460): 26.6 µM (inactive)

CCOC(=O)/C=C(\C(=O)OCC)n1ccc(=O)n(Cc2cn(COCCOC(C)=O)nn2)c1=O
GI50 (A549): > 76.4 µM (inactive)
GI50 (CCRF-CEM): 2.83 µM (inactive)
GI50 (HCT-15): 18.9 µM
GI50 (SK-MEL-5): 21.5 µM (inactive)
GI50 (HCT-116): 16.3 µM (inactive)
GI50 (EKVX): 19.9 µM (inactive)
GI50 (SF-539): 20.1 µM (inactive)
GI50 (HT-29): 16.2 µM (inactive)
GI50 (SK-MEL-2): 20.8 µM (inactive)
GI50 (UACC-257): 22 µM (inactive)
GI50 (RPMI-8226): 22.8 µM (inactive)
GI50 (DU-145): 38.8 µM (inactive)
GI50 (NCI/ADR-RES): 20.3 µM (inactive)
GI50 (Hs-578T): 26.5 µM (inactive)
GI50 (SK-OV-3): > 100 µM (inactive)
GI50 (MDA-MB-435): 18.7 µM (inactive)
GI50 (A498): > 54.3 µM (inactive)
GI50 (OVCAR-3): 23.2 µM (inactive)
GI50 (NCI-H460): > 38.1 µM (inactive)

O=c1ccc2[n+]([O-])c3ccc(O)cc3oc-2c1 [RESAZURIN]
GI50 (A549): 4.31 µM (inactive)
GI50 (CCRF-CEM): 30 µM (inactive)
GI50 (HCT-15): 5.15 µM
GI50 (SK-MEL-5): 2.72 µM (inactive)
GI50 (HCT-116): 16.7 µM (inactive)
GI50 (EKVX): 28.8 µM (inactive)
GI50 (SF-539): 15.9 µM (inactive)
GI50 (HT-29): 19.6 µM (inactive)
GI50 (SK-MEL-2): 10 µM (inactive)
GI50 (UACC-257): 11.2 µM (inactive)
GI50 (RPMI-8226): 6.01 µM (inactive)
GI50 (DU-145): 15.9 µM (inactive)
GI50 (NCI/ADR-RES): 13.4 µM (inactive)
GI50 (Hs-578T): 7.53 µM (inactive)
GI50 (SK-OV-3): 66.5 µM (inactive)
GI50 (MDA-MB-435): 1.89 µM (inactive)
GI50 (A498): 39.2 µM (inactive)
GI50 (OVCAR-3): 13.2 µM (inactive)
GI50 (NCI-H460): 12.3 µM (inactive)

CCCCc1ccc(Nc2nc(OC)c3ncn(C4CC(O)C(CO)O4)c3n2)cc1 (stereo not drawn)
GI50 (A549): 16.8 µM (inactive)
GI50 (CCRF-CEM): 17.5 µM (inactive)
GI50 (HCT-15): 13.9 µM
GI50 (SK-MEL-5): 18.7 µM (inactive)
GI50 (HCT-116): 15.8 µM (inactive)
GI50 (EKVX): 1.58 µM (inactive)
GI50 (SF-539): 13.7 µM (inactive)
GI50 (HT-29): 19.2 µM (inactive)
GI50 (SK-MEL-2): 20.2 µM (inactive)
GI50 (UACC-257): 17.7 µM (inactive)
GI50 (RPMI-8226): 27.2 µM (inactive)
GI50 (DU-145): 19.6 µM (inactive)
GI50 (NCI/ADR-RES): 27 µM (inactive)
GI50 (Hs-578T): 18.4 µM (inactive)
GI50 (SK-OV-3): 13.2 µM (inactive)
GI50 (MDA-MB-435): 17.7 µM (inactive)
GI50 (A498): 19.7 µM (inactive)
GI50 (OVCAR-3): 22.4 µM (inactive)
GI50 (NCI-H460): 16.4 µM (inactive)

Cc1nn2c(nc1=O)sc1ccc3ccccc3c12
GI50 (A549): > 100 µM (inactive)
GI50 (CCRF-CEM): > 100 µM (inactive)
GI50 (DLD-1): > 100 µM (inactive)
GI50 (HCT-15): > 100 µM
GI50 (SK-MEL-5): > 100 µM (inactive)
GI50 (HCT-116): > 100 µM (inactive)
GI50 (EKVX): > 100 µM (inactive)
GI50 (SF-539): > 100 µM (inactive)
GI50 (HT-29): > 100 µM (inactive)
GI50 (SK-MEL-2): > 100 µM (inactive)
GI50 (UACC-257): > 100 µM (inactive)
GI50 (SK-OV-3): > 100 µM (inactive)
GI50 (OVCAR-3): > 100 µM (inactive)
GI50 (NCI-H460): > 100 µM (inactive)
